In patent US20040192764A1 (H. Lundbeck A/S, priority 2001, published 2004):

Assay: pharmacological and clinical studies (potency versus racemate, influence of R-citalopram)
Assay type: in vivo
Conditions: presence of R-citalopram
Description: This may be shown in functional in-vivo pharmacological models and studies of 5-HT-reuptake effect and or in behaviour models, for example depression models.

Compound: CN(C)CCC[C@]1(c2ccc(F)cc2)OCc2cc(C#N)ccc21 [R-citalopram]
- influence on the effect of escitalopram: negative impact on the effect of escitalopram
